# Test system: yeast cells
# Experiment: Replicative lifespan (RLS) measurement with the DAP yeast strain and 96-well microfluidic device
# Assay type: cell-based, Saccharomyces cerevisiae
# Description: The IDS2GH or IDS2RH transformed yeast cells were cultured in YEPG [For 1 L medium: Bacto yeast extract (Difco 0127-17) (1%) 10 g, Bacto peptone (Difco 0118-17) (2%) 20 g, Galactose (2%) 20 g] at 30° C. for 15 hours, after which time the cells were diluted 1:20 in fresh YEPG and grown for another 3 hours. The cells were centrifuged and washed 3 times with YEP [For 1 L medium: Bacto yeast extract (Difco 0127-17) (1%) 10 g, Bacto peptone (Difco 0118-17) (2%) 20 g]. Finally, the cells were resuspended in an equal volume of YEP, then diluted at a 1:5 ratio in fresh YEP and incubated at 30° C. for another 3 hours; this last step allowed separation of any aggregates of cells.
# The water in the wells was discarded, and 100 μl of cells (˜1×10^6 cells/ml) were loaded into inlet wells in columns 1, 4, 7, 10 of the multiwell plate. The plate was then sealed with the 32-channel cover by applying vacuum to the sealing channel, and cell flow started by applying 4 psi air pressure to the loading channel for 10 seconds. Any remaining cells in the wells are discarded, and 300 μl autoclaved ddH2O added to wash the cells, applying 25 psi air pressure to the loading channel for 10 seconds. The remaining water in the wells was again discarded, and 300 μl YEPD [For 1 L medium: Bacto yeast extract (Difco 0127-17) (1%) 10 g, Bacto peptone (Difco 0118-17) (2%) 20 g, Dextrose (2%) 20 g] added, and the cells were washed by applying 2 psi air pressure to the loading channel for 240 seconds. The remaining YEPD in the wells was discarded and 300 μl fresh YEPD added to each well in columns 1, 3, 4, 6, 7, 9, 10, 12. […]
# Using the DAP system and the high-throughput microfluidic devices, the lifespan of a number of mutants and the effect of several drugs on lifespan were analyzed. […] The total number of cells in each trapping unit was counted and the fluorescent signal was used to determine the number of DAP mother cells loaded in the trapping unit, allowing the lifespan of the mother cells to be determined unambiguously. […]
structure (smiles),measurement,setting,value
CO[C@H]1C[C@@H]2CC[C@@H](C)[C@@](O)(O2)C(=O)C(=O)N2CCCC[C@H]2C(=O)O[C@H]([C@H](C)C[C@@H]2CC[C@@H](O)[C@H](OC)C2)CC(=O)[C@H](C)/C=C(\C)[C@@H](O)[C@@H](OC)C(=O)[C@H](C)C[C@H](C)/C=C/C=C/C=C/1C [rapamycin],lifespan extension,"100 nM concentration, three independent experiments, p=2.4×10^−10, FIG. 4A",19%
CN(C)C(=N)N=C(N)N [metformin],lifespan extension effect,"range of concentrations tested from 4 μM to 8 mM, data not shown",not observed
NCCCCNCCCN [spermidine],lifespan extension,"200 JIM concentration, p=6×10^−6, FIG. 4B",28%
